# US4992439A, “Pyridazine carboxylic acids and esters” (Bristol-Myers Squibb Company, priority 1990, dated 1991)
# Test system: human platelet aggregation (ADP-induced)
# Assay type: cell-based
# Details: human platelet rich plasma; ADP final concentration 0.5 mcg/mL; compounds in DMSO; read-out: Inhibition of Human Platelet Aggregation, IC50 vs. ADP
row,Compound,IC50 [µg/mL]
1,"O=C(O)CCCCCCCCn1nc(-c2ccccc2)c(-c2ccccc2)cc1=O [Example 2, 6-Oxo-3,4-diphenyl-1(6H)-pyridazinenonanoic acid]",2.9
2,"COC(=O)CCCCCCCCn1nc(-c2ccccc2)c(-c2ccccc2)cc1=O [Example 1, Methyl 6-oxo-3,4-diphenyl-1(6H)-pyridazinenonanoate]",21

# Now from value to compound:
row,IC50 [µg/mL],Compound
1,1,"O=C(O)COc1cccc(CCn2nc(-c3ccccc3)c(-c3ccccc3)cc2=O)c1 [Example 6, [3-[2-(1,6-Dihydro-6-oxo-3,4-diphenyl-1-pyridazinyl)ethyl]phenoxy]acetic Acid]"
2,0.75,"COC(=O)COc1cccc(CCn2nc(-c3ccccc3)c(-c3ccccc3)cc2=O)c1 [Example 5, Methyl [3-[2-(1,6-dihydro-6-oxo-3,4-diphenyl-1-pyridazinyl)ethyl]phenoxy]acetate]"
3,7.7,"COC(=O)CCCCCCCn1nc(-c2ccccc2)c(-c2ccccc2)cc1=O [Example 3, Methyl 6-Oxo-3,4-diphenyl-1(6H)pyridazinyloctanoate]"
4,1.6,"O=C(O)CCCCCCCn1nc(-c2ccccc2)c(-c2ccccc2)cc1=O [Example 4, 6-Oxo-3,4-diphenyl-1(6H)-pyridazinyloctanoic Acid]"
